Results on 12 compounds are retold here after ChEMBL document CHEMBL3271999, “Antimycotic imidazoles. 2. Synthesis and antimycotic properties of 1-[2-(arylalkyl)-2-phenylethyl]-1H-imidazoles” (1977).

Structures are written as SMILES. Activity calls are given as the source filed them. No cut-off for these calls is given here.

The test system of assay [1] is Aspergillus fumigatus. The assay is described as follows: Antifungal activity against Aspergillus fumigatus assessed as lowest dose level for total inhibition of fungal growth. Format: functional.
In assay [2] the test system is Erysipelothrix rhusiopathiae. The assay is described as follows: Antibacterial activity against Erysipelothrix insidiosa assessed as lowest dose level for total inhibition of bacterial growth. The format is functional.
In assay [3] the test system is Staphylococcus haemolyticus. The assay is described as follows: Antibacterial activity against Staphylococcus haemolyticus assessed as lowest dose level for total inhibition of bacterial growth. The format is functional.
The test system of assay [4] is Trichophyton rubrum. Put plainly: Antifungal activity against Trichophyton rubrum assessed as lowest dose level for total inhibition of fungal growth. Format: functional.
Assay [5] has as its system Mucor. The assay is described as follows: Antifungal activity against Mucor species assessed as lowest dose level for total inhibition of fungal growth. The format is functional.
Assay [6] relates to Candida tropicalis. The assay is described as follows: Antifungal activity against Candida tropicalis assessed as lowest dose level for total inhibition of fungal growth. Format: functional.
Assay [7] relates to Microsporum canis. Put plainly: Antifungal activity against Microsporum canis assessed as lowest dose level for total inhibition of fungal growth. Format: functional.
Assay [8] has as its system Cryptococcus neoformans. The assay is described as follows: Antifungal activity against Cryptococcus neoformans assessed as lowest dose level for total inhibition of fungal growth. The format is functional.
Assay [9] relates to Candida albicans. Put plainly: In vivo antifungal activity against Candida albicans topically infected in guinea pig assessed as animal cured at 10 mg/kg, po. More on the design: dose 10 mg/kg. Format: functional, organism-based.
Assay [10] has as its system Saprolegnia. Put plainly: Antifungal activity against Saprolegnia species assessed as lowest dose level for total inhibition of fungal growth. Format: functional.
Assay [11] deals with Trichophyton mentagrophytes. The assay is described as follows: Antifungal activity against Trichophyton mentagrophytes assessed as lowest dose level for total inhibition of fungal growth. The format is functional.
The test system of assay [12] is Streptococcus pyogenes. The assay is described as follows: Antibacterial activity against Streptococcus pyogenes assessed as lowest dose level for total inhibition of bacterial growth. Format: functional.
The subject of assay [13] is Candida albicans. The assay is described as follows: Antifungal activity against Candida albicans assessed as lowest dose level for total inhibition of fungal growth. The format is functional.
Assay [14] deals with Phialophora verrucosa. The assay is described as follows: Antifungal activity against Phialophora verrucosa assessed as lowest dose level for total inhibition of fungal growth. The format is functional.
In assay [15] the test system is Sporothrix schenckii. The assay is described as follows: Antifungal activity against Sporothrix schenckii assessed as lowest dose level for total inhibition of fungal growth. The format is functional.

On to `Clc1ccc(C(Cc2ccccc2Cl)Cn2ccnc2)cc1.O=[N+]([O-])O` (stereo not drawn), for which the Activity was 100 µg/mL in assay [1]; 1 µg/mL in assay [2]; 10 µg/mL in assay [3]; less than 1 µg/mL in assay [4]; 10 µg/mL in assay [5]; 100 µg/mL in [6]. The Activity in assay [7] is 10 µg/mL; in assay [8], less than 1 µg/mL; in assay [10] it was 100 µg/mL; in [11] it was less than 1 µg/mL; in assay [12], 10 µg/mL; in assay [13], 100 µg/mL. The Activity in assay [14] and in [15] was 100 µg/mL in each case. Further, the outcome in assay [9] was inactive.
Take `COc1ccc(CC(Cn2ccnc2)c2ccc(Cl)cc2Cl)cc1.O=[N+]([O-])O` (stereo not drawn): the Activity was 100 µg/mL in assay [1]; 1 µg/mL in assay [2]; 10 µg/mL in [3]; less than 1 µg/mL in [4]; 10 µg/mL in assay [5]; 10 µg/mL in assay [6]. In addition, the Activity is 100 µg/mL in assay [7]; less than 1 µg/mL in [8]; 100 µg/mL in assay [10]; less than 1 µg/mL in [11]; 1 µg/mL in assay [12]; 10 µg/mL in [13]. Also, the Activity in assay [14] and in assay [15] was 10 µg/mL each time. Also, the outcome in assay [9] was inactive.
Consider `Clc1ccc(CC(Cn2ccnc2)c2ccccc2Cl)c(Cl)c1.O=[N+]([O-])O` (stereo not drawn), for which the Activity in assay [1] was 100 µg/mL; in assay [2] it was 10 µg/mL; in assay [3] it was 100 µg/mL; in [4], less than 1 µg/mL; in assay [5], 100 µg/mL; in [6], greater than 100 µg/mL. Besides, the Activity in assay [7] is 10 µg/mL; in [8] it was less than 1 µg/mL; in assay [10] it was 100 µg/mL; in assay [11], less than 1 µg/mL; in [12] it was less than 1 µg/mL; in [13], 100 µg/mL. Also, the Activity in assay [14] stood at 100 µg/mL; in assay [15] it was 10 µg/mL. Also, in [9], the outcome was inactive.
In the case of `Clc1ccc(C(Cc2ccccc2)Cn2ccnc2)c(Cl)c1.O=[N+]([O-])O` (stereo not drawn), the Activity was 100 µg/mL in assay [1]; less than 1 µg/mL in [2]; 10 µg/mL in [3]; less than 1 µg/mL in assay [4]; 100 µg/mL in assay [5]; 10 µg/mL in assay [6]. Moreover, the Activity in assay [7] was 10 µg/mL; in assay [8], less than 1 µg/mL; in assay [10], 10 µg/mL; in assay [11], less than 1 µg/mL; in assay [12], less than 1 µg/mL; in [13], 100 µg/mL. The Activity in [14] and in assay [15] was 10 µg/mL each time. The outcome in assay [9] was inactive.
For `Clc1ccc(CC(Cn2ccnc2)c2c(Cl)cccc2Cl)c(Cl)c1.O=[N+]([O-])O` (stereo not drawn), the Activity is 100 µg/mL in [1]; 1 µg/mL in assay [2]; 10 µg/mL in assay [3]; less than 1 µg/mL in assay [4]; 100 µg/mL in assay [5]; greater than 100 µg/mL in [6]. Further, the Activity in assay [7] was 10 µg/mL; in assay [8], 10 µg/mL; in [10], 100 µg/mL; in [11], 10 µg/mL; in [12], less than 1 µg/mL; in [13] it was greater than 100 µg/mL. In addition, the Activity in [14] was greater than 100 µg/mL; in assay [15] it was 10 µg/mL. Also, in assay [9], the result was inactive.
As to `Clc1ccc(CC(Cn2ccnc2)c2ccccc2Br)cc1.O=[N+]([O-])O` (stereo not drawn), the Activity in [1] was 100 µg/mL; in assay [2], less than 1 µg/mL; in [3], 10 µg/mL; in assay [4], less than 1 µg/mL; in [5], 100 µg/mL; in assay [6], greater than 100 µg/mL. For the same compound, the Activity is 100 µg/mL in [7]; less than 1 µg/mL in assay [8]; 100 µg/mL in assay [10]; less than 1 µg/mL in assay [11]; 1 µg/mL in assay [12]; 10 µg/mL in assay [13]. Moreover, the Activity in assay [14] amounted to 100 µg/mL; in [15], 10 µg/mL.
`Clc1ccc(C(Cc2ccc(Cl)cc2Cl)Cn2ccnc2)cc1.O=[N+]([O-])O` (stereo not drawn): the Activity in assay [1] was 100 µg/mL; in assay [2] it was less than 1 µg/mL; in assay [3], 10 µg/mL; in assay [4] it was less than 1 µg/mL; in assay [5], 100 µg/mL; in [6], 100 µg/mL. Besides, the Activity in [7] was 10 µg/mL; in assay [8] it was less than 1 µg/mL; in [10] it was 100 µg/mL; in [11], less than 1 µg/mL; in [12], 1 µg/mL; in assay [13], 100 µg/mL. Moreover, the Activity in assay [14] was determined as 100 µg/mL; in [15], 10 µg/mL.
Take `Clc1ccccc1C(Cc1c(Cl)cccc1Cl)Cn1ccnc1.O=[N+]([O-])O` (stereo not drawn): the Activity is 10 µg/mL in [1]; 1 µg/mL in [2]; 1 µg/mL in assay [3]; less than 1 µg/mL in assay [4]; greater than 100 µg/mL in [5]; greater than 100 µg/mL in assay [6]. In addition, the Activity in assay [7] is less than 1 µg/mL; in assay [8], 10 µg/mL; in assay [10], 100 µg/mL; in assay [11], less than 1 µg/mL; in [12] it was less than 1 µg/mL; in [13] it was 100 µg/mL. Besides, the Activity in assay [14] was determined as 100 µg/mL; in assay [15] it was 10 µg/mL.
Consider `Clc1ccc(COC(Cn2ccnc2)c2ccc(Cl)cc2Cl)c(Cl)c1` (stereo not drawn) [MICONAZOLE], for which the Activity is 10 µg/mL in assay [1]; less than 1 µg/mL in assay [2]; 10 µg/mL in assay [3]; less than 1 µg/mL in [4]; greater than 100 µg/mL in assay [5]; 100 µg/mL in assay [6]. Further, the Activity is 1 µg/mL in [7]; 1 µg/mL in assay [8]; 10 µg/mL in assay [10]; less than 1 µg/mL in [11]; less than 1 µg/mL in [12]; 10 µg/mL in [13]. The Activity in assay [14] amounted to 100 µg/mL; in assay [15], 1 µg/mL.
Consider `Cc1ccccc1C(Cc1ccc(Cl)cc1)Cn1ccnc1.O=[N+]([O-])O` (stereo not drawn), for which the Activity in assay [1] was 100 µg/mL; in [2] it was 1 µg/mL; in assay [3], 10 µg/mL; in assay [4], 10 µg/mL; in assay [5], 100 µg/mL; in [6], greater than 100 µg/mL. Also, the Activity is 10 µg/mL in [7]; 10 µg/mL in assay [8]; 100 µg/mL in assay [10]; less than 1 µg/mL in assay [11]; less than 1 µg/mL in [12]; greater than 100 µg/mL in assay [13]. In addition, the Activity in assay [14] and in [15] was 100 µg/mL throughout.
Consider `Clc1ccc(C(Cc2c(Cl)cccc2Cl)Cn2ccnc2)cc1.O=[N+]([O-])O` (stereo not drawn), for which the Activity in assay [1] is 100 µg/mL; in [2], less than 1 µg/mL; in assay [3], 10 µg/mL; in assay [4], 10 µg/mL; in assay [5], 10 µg/mL; in assay [6] it was greater than 100 µg/mL. The Activity was 10 µg/mL in [7]; less than 1 µg/mL in [8]; 100 µg/mL in [10]; less than 1 µg/mL in assay [11]; less than 1 µg/mL in assay [12]; greater than 100 µg/mL in [13]. In addition, the Activity was found to be 100 µg/mL in [14] and 10 µg/mL in assay [15].
Take `Clc1ccc(C(Cc2ccccc2Cl)Cn2ccnc2)c(Cl)c1.O=[N+]([O-])O` (stereo not drawn): the Activity is 100 µg/mL in assay [1]; less than 1 µg/mL in assay [2]; 10 µg/mL in [3]; less than 1 µg/mL in assay [4]; 100 µg/mL in assay [5]; less than 1 µg/mL in [6]. Further, the Activity in assay [7] is 10 µg/mL; in assay [8], less than 1 µg/mL; in assay [10], 10 µg/mL; in assay [11] it was less than 1 µg/mL; in [12], less than 1 µg/mL; in assay [13], 100 µg/mL. In addition, the Activity in assay [14] was 10 µg/mL; in assay [15], less than 1 µg/mL.
